Our source for the AC50 and IC50 values is ChEMBL document CHEMBL1201862, “PubChem BioAssay data set” (2004).

The term AC50 denotes the midpoint of the concentration-response curve, whichever way the signal moves.

The source made the active and inactive calls. Rule as the data show it, for most assays here: active = IC50 of 10 µM or less and inactive = more. Where only a bound is given, the exact number is not on record here.

The target of test [1] is Glycogen synthase kinase-3 beta (Homo sapiens, UniProt P49841). Kind of test: inhibition of human GSK3B activity – biochemical, microfluidics, dry powder samples, set 2, dose response (AID 623989). The test is classed as functional.
Sequence of Glycogen synthase kinase-3 beta (P49841 whole entry): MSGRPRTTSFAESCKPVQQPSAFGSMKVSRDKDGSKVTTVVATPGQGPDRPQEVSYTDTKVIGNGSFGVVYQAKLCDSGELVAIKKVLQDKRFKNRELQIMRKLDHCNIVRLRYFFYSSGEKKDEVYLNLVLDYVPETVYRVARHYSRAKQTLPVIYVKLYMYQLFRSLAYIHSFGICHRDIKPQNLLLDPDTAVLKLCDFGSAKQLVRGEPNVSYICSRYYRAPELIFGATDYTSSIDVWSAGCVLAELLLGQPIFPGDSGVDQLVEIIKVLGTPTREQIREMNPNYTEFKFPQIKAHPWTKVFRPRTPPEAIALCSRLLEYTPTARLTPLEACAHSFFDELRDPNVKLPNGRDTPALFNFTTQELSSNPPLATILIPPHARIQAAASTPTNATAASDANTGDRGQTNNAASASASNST
The target of test [2] is Glycogen synthase kinase-3 alpha (Homo sapiens, UniProt P49840). Kind of test: GSK3A enzyme blockers, homolog specificity check – biochemical, microfluidics, dry powder samples, set 2, selectivity assay for GSK3beta inhibitor project, dose response (AID 623978). Type of test: functional.
Sequence of Glycogen synthase kinase-3 alpha (P49840 whole entry): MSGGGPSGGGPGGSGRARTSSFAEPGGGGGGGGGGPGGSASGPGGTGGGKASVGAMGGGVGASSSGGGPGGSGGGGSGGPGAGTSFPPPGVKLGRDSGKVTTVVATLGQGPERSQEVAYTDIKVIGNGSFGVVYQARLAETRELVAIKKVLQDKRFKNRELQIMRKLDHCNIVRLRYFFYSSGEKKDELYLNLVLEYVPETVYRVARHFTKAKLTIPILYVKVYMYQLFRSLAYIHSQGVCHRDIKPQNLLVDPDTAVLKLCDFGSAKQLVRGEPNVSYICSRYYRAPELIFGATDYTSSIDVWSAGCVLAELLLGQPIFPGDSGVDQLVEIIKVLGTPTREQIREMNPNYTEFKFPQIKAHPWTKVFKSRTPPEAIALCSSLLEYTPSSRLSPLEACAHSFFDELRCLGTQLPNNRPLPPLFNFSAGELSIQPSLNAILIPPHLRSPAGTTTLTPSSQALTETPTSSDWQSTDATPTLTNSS
For test [3], the target named is T1, DNA dC->dU-editing enzyme APOBEC-3A (Homo sapiens, UniProt P31941). Kind of test: SAR analysis of small molecule inhibitors of APOBEC3A DNA Deaminase via a fluorescence-based single-stranded DNA deaminase assay. Conditions: read-out: IC50_Mean. The test is classed as functional.
T1 sequence (P31941 whole entry): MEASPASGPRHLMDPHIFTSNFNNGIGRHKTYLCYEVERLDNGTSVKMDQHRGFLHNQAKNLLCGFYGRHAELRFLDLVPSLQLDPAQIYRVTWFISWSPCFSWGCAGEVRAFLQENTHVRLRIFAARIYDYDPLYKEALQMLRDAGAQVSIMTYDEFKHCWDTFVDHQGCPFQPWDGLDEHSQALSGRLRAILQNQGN
The target of test [4] is T1, DNA dC->dU-editing enzyme APOBEC-3A. Kind of test: SAR analysis of small molecule inhibitors of APOBEC3A DNA Deaminase via a fluorescence-based single-stranded DNA deaminase assay - Set 2. Type of test: functional. Conditions: read-out: IC50_Mean.
The target in test [5] is T2, DNA dC->dU-editing enzyme APOBEC-3G (Homo sapiens, UniProt Q9HC16). Kind of test: SAR analysis of small molecule inhibitors of APOBEC3G DNA Deaminase via a fluorescence-based single-stranded DNA deaminase assay - Set 2. The test is classed as functional. Conditions: read-out: IC50_Mean.
T2 sequence (Q9HC16 whole entry): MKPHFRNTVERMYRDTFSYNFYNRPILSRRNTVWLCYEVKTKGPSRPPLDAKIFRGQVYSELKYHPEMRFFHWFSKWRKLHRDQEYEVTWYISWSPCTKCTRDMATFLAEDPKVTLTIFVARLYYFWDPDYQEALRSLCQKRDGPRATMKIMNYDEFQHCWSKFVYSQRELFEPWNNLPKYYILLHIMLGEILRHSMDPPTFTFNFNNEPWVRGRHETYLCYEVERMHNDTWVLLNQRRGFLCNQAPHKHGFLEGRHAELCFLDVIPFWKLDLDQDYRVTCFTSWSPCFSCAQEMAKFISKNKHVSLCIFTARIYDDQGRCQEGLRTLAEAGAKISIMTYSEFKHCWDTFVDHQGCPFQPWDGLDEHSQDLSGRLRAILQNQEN
Test [6] deals with T2, DNA dC->dU-editing enzyme APOBEC-3G. As to the kind of experiment: inhibition of APOBEC3G ssDNA deamination – biochemical, fluorescence, single-stranded DNA substrate, SAR follow-up (AID 602136). Type of test: functional. Conditions: read-out: IC50_Mean.
Test [7] addresses T3, Melanin-concentrating hormone receptor 1 (Homo sapiens, UniProt Q99705). Kind of test: Late-stage fluorescence-based counterscreen for antagonists of the G-protein coupled receptor 7 (GPR7): cell-based dose response assay to identify antagonists of the melanin-concentrating hormone receptor 1 (MCHR1) Set 6. The test is classed as functional.
In test [8] the target is T4, Neuropeptides B/W receptor type 1 (Homo sapiens, UniProt P48145).
T4 sequence (P48145 whole entry): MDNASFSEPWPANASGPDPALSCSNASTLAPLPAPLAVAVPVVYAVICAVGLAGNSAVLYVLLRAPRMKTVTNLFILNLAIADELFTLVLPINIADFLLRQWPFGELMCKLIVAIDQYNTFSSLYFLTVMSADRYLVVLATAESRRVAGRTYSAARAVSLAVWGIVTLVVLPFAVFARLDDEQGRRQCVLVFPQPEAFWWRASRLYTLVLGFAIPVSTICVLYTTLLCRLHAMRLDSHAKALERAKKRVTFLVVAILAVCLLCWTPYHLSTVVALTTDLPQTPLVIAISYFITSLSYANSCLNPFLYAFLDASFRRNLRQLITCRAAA
As to the kind of experiment: human NPBW1 receptor blockade, IC50 – cell-based, fluorescence, dose response, set 6, late-stage follow-up (AID 588583). The test is classed as functional.

Test [9] concerns the target T3, Melanin-concentrating hormone receptor 1. Kind of test: Late-stage fluorescence-based counterscreen for antagonists of the G-protein coupled receptor 7 (GPR7): cell-based dose response assay to identify antagonists of the melanin-concentrating hormone receptor 1 (MCHR1) Set 5. The test is classed as functional. On the technique in general: A counterscreen serves to expose hits that act by an unwanted route or on another target.

Test [10] concerns the target T4, Neuropeptides B/W receptor type 1. Kind of test: human NPBW1 receptor blockade, IC50 – cell-based, fluorescence, dose response, set 5, late-stage follow-up (AID 588566). Type of test: functional.
Test [11] concerns the target T5, Apoptotic protease-activating factor 1 (Homo sapiens, UniProt O14727).
T5 sequence (O14727 whole entry): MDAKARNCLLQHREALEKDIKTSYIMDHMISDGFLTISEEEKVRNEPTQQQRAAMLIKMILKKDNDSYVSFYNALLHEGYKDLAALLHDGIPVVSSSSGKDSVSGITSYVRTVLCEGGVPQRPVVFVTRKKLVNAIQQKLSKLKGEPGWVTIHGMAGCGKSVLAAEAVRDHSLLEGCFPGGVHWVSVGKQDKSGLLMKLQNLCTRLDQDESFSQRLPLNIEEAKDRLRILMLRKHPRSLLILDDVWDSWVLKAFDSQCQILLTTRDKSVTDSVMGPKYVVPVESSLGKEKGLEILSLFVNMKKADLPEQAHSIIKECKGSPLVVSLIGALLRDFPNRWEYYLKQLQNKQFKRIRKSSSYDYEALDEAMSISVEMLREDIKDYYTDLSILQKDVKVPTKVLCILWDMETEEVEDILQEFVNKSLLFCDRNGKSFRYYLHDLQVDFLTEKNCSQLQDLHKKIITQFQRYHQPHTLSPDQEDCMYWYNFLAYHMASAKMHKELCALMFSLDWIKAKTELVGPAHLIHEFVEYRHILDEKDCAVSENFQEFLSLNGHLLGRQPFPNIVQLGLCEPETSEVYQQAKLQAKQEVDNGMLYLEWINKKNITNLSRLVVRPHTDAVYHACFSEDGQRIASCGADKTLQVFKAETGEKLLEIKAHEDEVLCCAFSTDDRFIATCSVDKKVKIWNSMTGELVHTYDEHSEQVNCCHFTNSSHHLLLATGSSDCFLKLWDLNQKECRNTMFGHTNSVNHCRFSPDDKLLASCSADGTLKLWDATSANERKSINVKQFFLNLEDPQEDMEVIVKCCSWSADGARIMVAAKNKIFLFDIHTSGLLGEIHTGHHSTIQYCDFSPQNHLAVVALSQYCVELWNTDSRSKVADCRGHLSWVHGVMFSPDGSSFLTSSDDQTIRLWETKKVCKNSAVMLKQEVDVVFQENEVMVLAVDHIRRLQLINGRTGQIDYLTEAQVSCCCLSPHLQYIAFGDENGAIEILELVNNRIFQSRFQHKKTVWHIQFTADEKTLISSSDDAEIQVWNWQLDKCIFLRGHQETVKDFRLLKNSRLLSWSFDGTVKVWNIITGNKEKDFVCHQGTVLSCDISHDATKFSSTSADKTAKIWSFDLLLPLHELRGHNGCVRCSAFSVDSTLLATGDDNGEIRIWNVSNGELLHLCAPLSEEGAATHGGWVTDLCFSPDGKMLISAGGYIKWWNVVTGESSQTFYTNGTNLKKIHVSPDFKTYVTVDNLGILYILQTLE
As to the kind of experiment: SAR analysis of small molecule inhibitors of Apaf-1 in a Fluorescent assay. Type of test: functional. The conditions noted are these: read-out: IC50_Mean.

T3 sequence (Q99705 whole entry): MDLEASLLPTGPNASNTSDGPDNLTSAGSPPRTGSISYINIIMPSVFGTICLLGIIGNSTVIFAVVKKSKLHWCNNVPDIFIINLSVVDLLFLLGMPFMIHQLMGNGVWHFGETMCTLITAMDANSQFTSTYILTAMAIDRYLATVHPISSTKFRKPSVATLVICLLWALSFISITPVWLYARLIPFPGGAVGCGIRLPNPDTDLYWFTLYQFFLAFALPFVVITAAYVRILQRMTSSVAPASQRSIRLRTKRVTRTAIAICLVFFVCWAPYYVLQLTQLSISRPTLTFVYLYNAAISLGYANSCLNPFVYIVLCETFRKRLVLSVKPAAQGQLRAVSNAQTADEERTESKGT

For `Fc1cccc(Nc2nc(-c3ccncc3)nc3ccccc23)c1`, the AC50 in test [1] is 0.894 µM (active); in [2], 29.7 µM (active). In addition, in “cells”, the IC50 was 44.3 µM (active).
On to `CC1(C)Oc2ccc3ccc(=O)oc3c2C(C=NCCO)=C1O`, for which the IC50 in test [3] is 28.8 µM (inactive); in [4] it was 50.4 µM (inactive); in test [5], 2.34 µM (active); in test [6], 12.3 µM (inactive).
Regarding `N#CC(c1cccc(F)c1F)c1c(Cl)cnn(Cc2cccc3ccccc23)c1=O` (configuration not stated), the IC50 in test [7] and in [8] was 0.542 µM (active) each time.
Take `COc1ccc(Oc2c(Cl)cnn(Cc3ccccc3OCc3ccccc3)c2=O)cc1`: the IC50 in test [9] is 16.5 µM (inactive); in [10], 1.21 µM (active).
In the case of `Cc1ccc2c(c1)C(=O)c1nc3ccccc3c(=O)n1-2`, in test [11], the IC50 is > 100 µM (inactive).
